Results published in patent US12252524B2, “GIP/GLP1 co-agonist compounds” (Eli Lilly and Company, priority 2018, dated 2025).
Numbered stars: 1 amine (or outer) side, 2 acyl side, 3 side chain; on linkers, the order of the positions; unused ones are H or OH. Square brackets hold non-standard residues; d marks the D form. Side chains are listed from the residue outwards. Peptide text beside a SMILES is read from it. * marks the point of attachment. C18 diacid = O=C(O)CCCCCCCCCCCCCCCCC(=O)*; αMePhe(2-F) = C[C@](N)(Cc1ccccc1F)C(=O)O; γGlu = O=C(O)[C@H](CCC(=O)[*:2])N[*:1]; αMeY = C[C@](N)(Cc1ccc(O)cc1)C(=O)O; 4Pal = N[C@@H](Cc1ccncc1)C(=O)O; αMeL = CC(C)C[C@](C)(N)C(=O)O; Orn = NCCC[C@H](N)C(=O)O; AEEA = NCCOCCOCC(=O)O; Aib = CC(C)(N)C(=O)O

Key:
human GIP receptor = target: T1, human GIP receptor (Homo sapiens, UniProt P48546); assay: [125I]-GIP binding (SPA), human GIP receptor; settings: read-out: hGIPR Ki, nM (SEM, n)
T1 construct: expressed in transfected cells; crude membranes
T1 sequence (P48546 22-466): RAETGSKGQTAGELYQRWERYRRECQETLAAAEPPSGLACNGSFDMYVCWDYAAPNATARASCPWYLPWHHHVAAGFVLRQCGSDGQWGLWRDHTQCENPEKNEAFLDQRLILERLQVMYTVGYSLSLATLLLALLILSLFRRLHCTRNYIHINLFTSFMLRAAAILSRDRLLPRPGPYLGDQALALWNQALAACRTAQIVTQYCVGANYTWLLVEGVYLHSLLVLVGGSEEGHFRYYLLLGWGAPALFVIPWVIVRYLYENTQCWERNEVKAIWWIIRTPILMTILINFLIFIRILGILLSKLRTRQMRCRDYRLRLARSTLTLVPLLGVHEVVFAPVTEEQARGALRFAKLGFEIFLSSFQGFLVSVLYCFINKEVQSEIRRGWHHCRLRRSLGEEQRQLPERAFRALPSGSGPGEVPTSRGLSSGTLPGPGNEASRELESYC

[1] = target: T2, gastric inhibitory peptide receptor (GIPR) (Homo sapiens, UniProt P48546); assay: cAMP pharmacological functional assay in presence of casein, hGIPR; format: cell-based; settings: HEK293 cells expressing hGIPR, 0.1% Casein, geometric mean; read-out: hGIPR cAMP Rel EC50 nM (SEM, n)
T2 sequence (P48546 22-466): T1 sequence (P48546 22-466)

human Gcg receptor = target: T3, human Gcg receptor (Homo sapiens, UniProt P47871); assay: [125I]-Glucagon binding (SPA), human Gcg receptor; settings: read-out: hGLcgR Ki, nM (SEM, n)
T3 construct: expressed in transfected cells; crude membranes
How it was run: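 Scintillation counts are taken after membranes and WGA beads incubate and settle for 12 hours at room temperature. Buffer is 25 mM HEPES, pH 7.4, with CaCl2, MgCl2, bacitracin and Tween-20. Ki values, from four-parameter IC50 fits, are geometric means over independent days.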

[2] = target: human GLP-1 receptor (GLP-1R) (Homo sapiens, UniProt P43220); assay: cAMP pharmacological functional assay in presence of casein, hGLP-1R; format: cell-based; settings: HEK293 cells expressing hGLP-1R, 0.1% Casein, geometric mean; read-out: hGLP1R cAMP Rel EC50 nM (SEM, n)
human GLP-1R = human GLP-1R (Homo sapiens, UniProt P43220); assay: [125I]-GLP-1 binding (SPA), human GLP-1 receptor; set-up: expressed in transfected cells; crude membranes; settings: read-out: hGLP1R Ki, (nM) (SEM, n)
How it was run: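 Frozen cell pellets are lysed on ice in hypotonic Tris buffer, pH 7.5, homogenized, and centrifuged to a membrane pellet resuspended at about 1 to 3 mg/mL. Binding is then measured in HEPES-based buffer at pH 7.4, and curves are fitted to give IC50 and Ki.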

T3 sequence (P47871 26-477): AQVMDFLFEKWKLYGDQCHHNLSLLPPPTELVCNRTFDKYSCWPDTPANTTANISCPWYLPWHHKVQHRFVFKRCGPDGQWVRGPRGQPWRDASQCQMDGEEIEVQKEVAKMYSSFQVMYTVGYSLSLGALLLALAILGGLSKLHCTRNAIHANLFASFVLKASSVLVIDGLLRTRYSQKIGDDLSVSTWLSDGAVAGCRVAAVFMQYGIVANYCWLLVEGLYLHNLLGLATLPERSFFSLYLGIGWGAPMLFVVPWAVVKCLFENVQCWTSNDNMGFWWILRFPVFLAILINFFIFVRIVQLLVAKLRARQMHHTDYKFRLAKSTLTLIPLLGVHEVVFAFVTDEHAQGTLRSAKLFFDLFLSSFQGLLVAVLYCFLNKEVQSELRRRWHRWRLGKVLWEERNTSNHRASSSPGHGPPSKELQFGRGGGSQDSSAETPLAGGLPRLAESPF
Chain of human GLP-1 receptor (GLP-1R) (P43220 24-463): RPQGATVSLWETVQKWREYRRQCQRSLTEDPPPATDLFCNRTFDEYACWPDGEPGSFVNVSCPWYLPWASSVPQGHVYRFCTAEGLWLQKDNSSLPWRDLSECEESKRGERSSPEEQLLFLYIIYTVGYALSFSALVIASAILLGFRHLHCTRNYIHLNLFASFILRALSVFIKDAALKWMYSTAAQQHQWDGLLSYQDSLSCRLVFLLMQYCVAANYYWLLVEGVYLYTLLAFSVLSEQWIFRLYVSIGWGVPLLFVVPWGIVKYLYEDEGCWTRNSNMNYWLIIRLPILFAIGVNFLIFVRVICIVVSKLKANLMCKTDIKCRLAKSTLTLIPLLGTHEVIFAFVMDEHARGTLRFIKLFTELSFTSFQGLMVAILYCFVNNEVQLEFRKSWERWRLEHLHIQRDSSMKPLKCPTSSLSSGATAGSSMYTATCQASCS
Chain of human GLP-1R (P43220 24-463): as above

Row | Compound | Ki (human GIP receptor) [nM] | EC50 [1] [nM] | Ki (human Gcg receptor) [nM] | EC50 [2] [nM] | Ki (human GLP-1R) [nM]
1 | CC[C@H](C)[C@H](NC(=O)[C@H](CC(C)C)NC(=O)[C@](C)(Cc1ccc(O)cc1)NC(=O)[C@@H](CCC(=O)O)NC(=O)[C@@H](NC(=O)[C@H](Cc1ccccc1)NC(=O)[C@H](CCC(=O)O)NC(=O)C(C)(C)NC(=O)[C@H](CCC(N)=O)NC(=O)[C@H](C)NC(=O)[C@H](CCCCNC(=O)COCCOCCNC(=O)COCCOCCNC(=O)CC[C@H](NC(=O)CCCCCCCCCCCCCCCCC(=O)O)C(=O)O)NC(=O)[C@H](CCCN)NC(=O)[C@H](CC(=O)O)NC(=O)[C@H](CC(C)C)NC(=O)[C@](C)(CC(C)C)NC(=O)[C@@H](NC(=O)[C@H](CO)NC(=O)[C@H](C)NC(=O)[C@H](CC(=O)O)NC(=O)[C@H](CO)NC(=O)[C@@H](NC(=O)[C@](C)(Cc1ccccc1F)NC(=O)[C@@H](NC(=O)CNC(=O)[C@H](CCC(=O)O)NC(=O)C(C)(C)NC(=O)[C@@H](N)Cc1ccc(O)cc1)[C@@H](C)O)[C@@H](C)O)[C@@H](C)CC)[C@@H](C)CC)C(=O)N[C@@H](CCC(=O)O)C(=O)NCC(=O)NCC(=O)N1CCC[C@H]1C(=O)N[C@@H](CO)C(=O)N[C@@H](CO)C(=O)NCC(=O)N[C@@H](C)C(=O)N1CCC[C@H]1C(=O)N1CCC[C@H]1C(=O)N1CCC[C@H]1C(=O)N[C@@H](CO)C(N)=O [Example 237] (H-Y[Aib]EGT[αMePhe(2-F)]TSDASI[αMeL]LD[Orn]K([AEEA-AEEA-γGlu-C18 diacid])AQ[Aib]EFI[dE][αMeY]LIEGGPSSGAPPPS-NH2) | 0.131 | 0.0883 | > 1060 | 0.0187 | 1.04
2 | CC[C@H](C)[C@H](NC(=O)[C@H](CC(C)C)NC(=O)[C@](C)(Cc1ccc(O)cc1)NC(=O)[C@@H](CCC(=O)O)NC(=O)[C@@H](NC(=O)[C@H](Cc1ccccc1)NC(=O)[C@H](CCC(=O)O)NC(=O)C(C)(C)NC(=O)[C@H](CCC(N)=O)NC(=O)[C@H](C)NC(=O)[C@H](CCCCNC(=O)COCCOCCNC(=O)COCCOCCNC(=O)CC[C@H](NC(=O)CCCCCCCCCCCCCCCCC(=O)O)C(=O)O)NC(=O)[C@H](CCCN)NC(=O)[C@H](CC(=O)O)NC(=O)[C@H](CC(C)C)NC(=O)[C@](C)(CC(C)C)NC(=O)[C@@H](NC(=O)[C@H](CO)NC(=O)[C@H](CC(C)C)NC(=O)[C@H](CC(=O)O)NC(=O)[C@H](CO)NC(=O)[C@@H](NC(=O)[C@](C)(Cc1ccccc1F)NC(=O)[C@@H](NC(=O)CNC(=O)[C@H](CCC(=O)O)NC(=O)C(C)(C)NC(=O)[C@@H](N)Cc1ccc(O)cc1)[C@@H](C)O)[C@@H](C)O)[C@@H](C)CC)[C@@H](C)CC)C(=O)N[C@@H](CCC(=O)O)C(=O)NCC(=O)NCC(=O)N1CCC[C@H]1C(=O)N[C@@H](CO)C(=O)N[C@@H](CO)C(=O)NCC(=O)N[C@@H](C)C(=O)N1CCC[C@H]1C(=O)N1CCC[C@H]1C(=O)N1CCC[C@H]1C(=O)N[C@@H](CO)C(N)=O [Example 238] (H-Y[Aib]EGT[αMePhe(2-F)]TSDLSI[αMeL]LD[Orn]K([AEEA-AEEA-γGlu-C18 diacid])AQ[Aib]EFI[dE][αMeY]LIEGGPSSGAPPPS-NH2) | 0.0403 | 0.0296 | 230 | 0.0241 | 0.548
3 | CC[C@H](C)[C@H](NC(=O)[C@H](CC(C)C)NC(=O)[C@](C)(Cc1ccc(O)cc1)NC(=O)[C@@H](CCC(=O)O)NC(=O)[C@@H](NC(=O)[C@H](Cc1ccccc1)NC(=O)[C@@H](NC(=O)C(C)(C)NC(=O)[C@H](CCC(N)=O)NC(=O)[C@H](C)NC(=O)[C@H](CCCCNC(=O)COCCOCCNC(=O)COCCOCCNC(=O)CC[C@H](NC(=O)CCCCCCCCCCCCCCCCC(=O)O)C(=O)O)NC(=O)[C@H](CCCN)NC(=O)[C@H](CC(=O)O)NC(=O)[C@H](CC(C)C)NC(=O)[C@](C)(CC(C)C)NC(=O)[C@@H](NC(=O)[C@H](CO)NC(=O)[C@H](Cc1ccncc1)NC(=O)[C@H](CC(=O)O)NC(=O)[C@H](CO)NC(=O)[C@@H](NC(=O)[C@](C)(Cc1ccccc1F)NC(=O)[C@@H](NC(=O)CNC(=O)[C@H](CCC(=O)O)NC(=O)C(C)(C)NC(=O)[C@@H](N)Cc1ccc(O)cc1)[C@@H](C)O)[C@@H](C)O)[C@@H](C)CC)[C@@H](C)O)[C@@H](C)CC)C(=O)N[C@@H](CCC(=O)O)C(=O)NCC(=O)NCC(=O)N1CCC[C@H]1C(=O)N[C@@H](CO)C(=O)N[C@@H](CO)C(=O)NCC(=O)N[C@@H](C)C(=O)N1CCC[C@H]1C(=O)N1CCC[C@H]1C(=O)N1CCC[C@H]1C(=O)N[C@@H](CO)C(N)=O [Example 239] (H-Y[Aib]EGT[αMePhe(2-F)]TSD[4Pal]SI[αMeL]LD[Orn]K([AEEA-AEEA-γGlu-C18 diacid])AQ[Aib]TFI[dE][αMeY]LIEGGPSSGAPPPS-NH2; N-terminus assumed) | 0.101 | 0.0353 | 596 | 0.0376 | 2.71
4 | CC[C@H](C)[C@H](NC(=O)[C@H](CC(C)C)NC(=O)[C@](C)(Cc1ccc(O)cc1)NC(=O)[C@@H](CCC(=O)O)NC(=O)[C@@H](NC(=O)[C@H](Cc1ccccc1)NC(=O)[C@H](C)NC(=O)C(C)(C)NC(=O)[C@H](CCC(N)=O)NC(=O)[C@H](C)NC(=O)[C@H](CCCCNC(=O)COCCOCCNC(=O)COCCOCCNC(=O)CC[C@H](NC(=O)CCCCCCCCCCCCCCCCC(=O)O)C(=O)O)NC(=O)[C@H](CCCN)NC(=O)[C@H](CC(=O)O)NC(=O)[C@H](CC(C)C)NC(=O)[C@](C)(CC(C)C)NC(=O)[C@@H](NC(=O)[C@H](CO)NC(=O)[C@H](Cc1ccncc1)NC(=O)[C@H](CC(=O)O)NC(=O)[C@H](CO)NC(=O)[C@@H](NC(=O)[C@](C)(Cc1ccccc1F)NC(=O)[C@@H](NC(=O)CNC(=O)[C@H](CCC(=O)O)NC(=O)C(C)(C)NC(=O)[C@@H](N)Cc1ccc(O)cc1)[C@@H](C)O)[C@@H](C)O)[C@@H](C)CC)[C@@H](C)CC)C(=O)N[C@@H](CCC(=O)O)C(=O)NCC(=O)NCC(=O)N1CCC[C@H]1C(=O)N[C@@H](CO)C(=O)N[C@@H](CO)C(=O)NCC(=O)N[C@@H](C)C(=O)N1CCC[C@H]1C(=O)N1CCC[C@H]1C(=O)N1CCC[C@H]1C(=O)N[C@@H](CO)C(N)=O [Example 240] (H-Y[Aib]EGT[αMePhe(2-F)]TSD[4Pal]SI[αMeL]LD[Orn]K([AEEA-AEEA-γGlu-C18 diacid])AQ[Aib]AFI[dE][αMeY]LIEGGPSSGAPPPS-NH2) | 0.0284 | 0.0223 | 204 | 0.0393 | 0.552
5 | CC[C@H](C)[C@H](NC(=O)[C@H](CC(C)C)NC(=O)[C@](C)(Cc1ccc(O)cc1)NC(=O)[C@@H](CCC(=O)O)NC(=O)[C@@H](NC(=O)[C@H](Cc1ccccc1)NC(=O)[C@@H](NC(=O)C(C)(C)NC(=O)[C@H](CCC(N)=O)NC(=O)[C@H](C)NC(=O)[C@H](CCCCNC(=O)COCCOCCNC(=O)COCCOCCNC(=O)CC[C@H](NC(=O)CCCCCCCCCCCCCCCCC(=O)O)C(=O)O)NC(=O)[C@H](CCCN)NC(=O)[C@H](CC(=O)O)NC(=O)[C@H](CC(C)C)NC(=O)[C@](C)(CC(C)C)NC(=O)[C@@H](NC(=O)[C@H](CO)NC(=O)[C@@H](NC(=O)[C@H](CC(=O)O)NC(=O)[C@H](CO)NC(=O)[C@@H](NC(=O)[C@](C)(Cc1ccccc1F)NC(=O)[C@@H](NC(=O)CNC(=O)[C@H](CCC(=O)O)NC(=O)C(C)(C)NC(=O)[C@@H](N)Cc1ccc(O)cc1)[C@@H](C)O)[C@@H](C)O)C(C)C)[C@@H](C)CC)[C@@H](C)O)[C@@H](C)CC)C(=O)N[C@@H](CCC(=O)O)C(=O)NCC(=O)NCC(=O)N1CCC[C@H]1C(=O)N[C@@H](CO)C(=O)N[C@@H](CO)C(=O)NCC(=O)N[C@@H](C)C(=O)N1CCC[C@H]1C(=O)N1CCC[C@H]1C(=O)N1CCC[C@H]1C(=O)N[C@@H](CO)C(N)=O [Example 241] (H-Y[Aib]EGT[αMePhe(2-F)]TSDVSI[αMeL]LD[Orn]K([AEEA-AEEA-γGlu-C18 diacid])AQ[Aib]TFI[dE][αMeY]LIEGGPSSGAPPPS-NH2; N-terminus assumed) | 0.042 | 0.0257 | 167 | 0.0175 | 0.799
